Experimental data: patent publication US20230233690A1, “ANDROGEN RECEPTOR PROTEIN DEGRADERS” (THE REGENTS OF THE UNIVERSITY OF MICHIGAN, priority 2020, published 2023)
Where two headings read alike, the source gives them in different places.

Columns and labels:
[1] = biological target: T1, AR protein (Homo sapiens, UniProt P10275); test: Western blotting of AR protein degradation in VCaP cells; assay type: cell-based
T1 construct: endogenous in cells; host or cells: VCaP
T1 sequence (P10275 1-920): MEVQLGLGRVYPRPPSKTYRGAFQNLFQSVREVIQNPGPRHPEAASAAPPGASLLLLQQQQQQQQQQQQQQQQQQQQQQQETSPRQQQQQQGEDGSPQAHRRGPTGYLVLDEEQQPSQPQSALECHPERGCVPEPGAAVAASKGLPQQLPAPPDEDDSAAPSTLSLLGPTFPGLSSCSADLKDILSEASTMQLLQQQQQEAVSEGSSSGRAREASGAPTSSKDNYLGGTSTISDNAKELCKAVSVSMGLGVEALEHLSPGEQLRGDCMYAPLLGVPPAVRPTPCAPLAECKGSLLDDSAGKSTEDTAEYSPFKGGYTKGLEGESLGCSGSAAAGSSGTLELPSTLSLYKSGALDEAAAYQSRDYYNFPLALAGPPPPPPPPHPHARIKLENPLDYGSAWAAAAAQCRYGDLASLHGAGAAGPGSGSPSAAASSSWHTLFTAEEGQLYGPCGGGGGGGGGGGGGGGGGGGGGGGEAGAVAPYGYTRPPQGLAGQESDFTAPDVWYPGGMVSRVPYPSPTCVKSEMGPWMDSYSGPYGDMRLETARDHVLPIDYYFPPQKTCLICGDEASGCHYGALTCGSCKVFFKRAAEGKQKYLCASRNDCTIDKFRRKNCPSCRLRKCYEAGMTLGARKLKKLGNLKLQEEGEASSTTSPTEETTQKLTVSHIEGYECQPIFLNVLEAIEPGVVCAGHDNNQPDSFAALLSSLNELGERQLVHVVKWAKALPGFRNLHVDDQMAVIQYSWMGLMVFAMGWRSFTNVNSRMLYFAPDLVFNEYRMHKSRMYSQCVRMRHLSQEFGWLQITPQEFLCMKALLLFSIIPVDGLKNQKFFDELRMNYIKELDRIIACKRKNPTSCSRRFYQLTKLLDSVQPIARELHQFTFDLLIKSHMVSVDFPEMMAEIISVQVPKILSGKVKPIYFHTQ
Method: The treated cells were lysed with RIPA buffer. […] GAPDH was used as a loading control.
Bands were quantified with ImageJ software. The relative numbers of each band obtained from normalization with its corresponding GAPDH level were compared with Prism 8 software. The DC50 values were produced from Prism 8, and the DC90 values were calculated with an equation=Bottom+(Top−Bottom)/(1+10^((Log EC50−X)*HillSlope) based on DC50 and Hillslope values.

[2] = PK parameters in male mice (Table 9); assay type: in vivo; conditions: for F: PO 3 mg/kg vs IV 1 mg/kg; for Vd: read-out: Vss
Method: The pharmacokinetics (PK) of representative Compounds of the Disclosure were evaluated in mice or rats to provide an assessment of their oral bioavaibility. All animal experiments were performed under the guidelines of the University of Michigan Committee for Use and Care of Animals and using an approved animal protocol.

[3] = ICR, mouse, in vivo, IV 1 mg/kg
[4] = ICR, mouse, in vivo, IV 1 mg/kg, read-out: AUC(0-t)
[5] = ICR, mouse, in vivo, PO 3 mg/kg
[6] = ICR, mouse, in vivo, PO 3 mg/kg, read-out: AUC(0-t)
[7] = ICR, mouse, in vivo, PO 3 mg/kg, read-out: Cmax
[8] = ICR, mouse, in vivo, PO 3 mg/kg, read-out: Tmax

Compound | % AR protein degradation in VCaP Cells ([1]; 0.001 μM) [%] | % AR protein degradation in VCaP Cells ([1]; 0.01 μM) [%] | % AR protein degradation in VCaP Cells ([1]; 0.1 μM) [%] | % AR protein degradation in VCaP Cells ([1]; 1 μM) [%] | clearance [2, 3] [L/h/kg] | AUC(0-t) ([2]; IV 1 mg/kg) [µg·h/mL] | T1/2 ([2]; IV 1 mg/kg) [h] | Vss ([2]; IV 1 mg/kg) [L/kg] | AUC(0-t) ([2]; PO 3 mg/kg) [µg·h/mL] | Cmax ([2]; PO 3 mg/kg) [µg/mL] | T1/2 ([2]; PO 3 mg/kg) [h] | Tmax ([2]; PO 3 mg/kg) [h] | F [2] [%] | other results
CN(c1ccc(C#N)c(Cl)c1)[C@H]1CC[C@H](NC(=O)c2ccc(N3CC(N4CCN(c5ccc6c(c5)C(=O)N(C5CCC(=O)NC5=O)C6=O)CC4)C3)cc2)CC1 (some centres unmarked) [compound 240, N-((1r,4r)-4-((3-chloro-4-cyanophenyl)(methyl)amino)cyclohexyl)-4-(3-(4-(2-(2,6-dioxopiperidin-3-yl)-1,3-dioxoisoindolin-5-yl)piperazin-1-yl)azetidin-1-yl)benzamide] | 82 | 87 | 88 | 75 | 0.21 | 4.234 | 7.5 | 2.1 | 8.637 | 0.484 | 26.8 | 4.7 | 67 | –
CN(c1ccc(C#N)c(Cl)c1)[C@H]1CC[C@H](NC(=O)c2ccc(N3CCN(CC4CN(c5ccc6c(c5)C(=O)N(C5CCC(=O)NC5=O)C6=O)C4)CC3)cc2)CC1 (some centres unmarked) [compound 237, N-((1r,4r)-4-((3-chloro-4-cyanophenyl)(methyl)amino)cyclohexyl)-4-(4-((1-(2-(2,6-dioxopiperidin-3-yl)-1,3-dioxoisoindolin-5-yl)azetidin-3-yl)methyl)piperazin-1-yl)benzamide] | – | – | – | – | – | 1.226 | 3.8 | 3.92 | 1.111 | 0.127 | 4.3 | 5.3 | 30 | Cl ([2]; IV 1 mg/kg): 0.82 L/h/kg
CN(c1ccc(C#N)c(Cl)c1)[C@H]1CC[C@H](NC(=O)c2ccc(N3CCN(CC4CCN(c5ccc6c(c5)C(=O)N(C5CCC(=O)NC5=O)C6=O)CC4)CC3)cc2)CC1 (some centres unmarked) [compound 233, N-((1r,4r)-4-((3-chloro-4-cyanophenyl)(methyl)amino)cyclohexyl)-4-(4-((1-(2-(2,6-dioxopiperidin-3-yl)-1,3-dioxoisoindolin-5-yl)piperidin-4-yl)methyl)piperazin-1-yl)benzamide] | 49 | 78 | 87 | 76 | 0.51 | – | – | – | – | – | – | – | 30 | half-life [2, 3]: 26 h; AUC(0-t) [2, 4]: 1.04 µg·h/mL; Vd [2, 3]: 16.8 L/kg; half-life [2, 5]: 41 h; AUC(0-t) [2, 6]: 0.94 µg·h/mL; Cmax [2, 7]: 0.06 µg/mL; Tmax [2, 8]: 4 h
CN(c1ccc(C#N)c(Cl)c1)[C@H]1CC[C@H](NC(=O)c2ccc(N3CCC(N4CCN(c5ccc6c(c5)C(=O)N(C5CCC(=O)NC5=O)C6=O)CC4)CC3)cc2)CC1 (some centres unmarked) [compound 230, N-((1r,4r)-4-((3-chloro-4-cyanophenyl)(methyl)amino)cyclohexyl)-4-(4-(4-(2-(2,6-dioxopiperidin-3-yl)-1,3-dioxoisoindolin-5-yl)piperazin-1-yl)piperidin-1-yl)benzamide] | – | – | – | – | 0.33 | 2.857 | 6.6 | 2.73 | 3.811 | 0.251 | 10.6 | 5.3 | 44 | –
CCN(c1ccc(C#N)c(Cl)c1)[C@H]1CC[C@H](NC(=O)c2ccc(N3CCC(N4CCN(c5ccc6c(c5)C(=O)N(C5CCC(=O)NC5=O)C6=O)CC4)CC3)cc2)CC1 (some centres unmarked) [compound 231, N-((1r,4r)-4-((3-chloro-4-cyanophenyl)(ethyl)amino)cyclohexyl)-4-(4-(4-(2-(2,6-dioxopiperidin-3-yl)-1,3-dioxoisoindolin-5-yl)piperazin-1-yl)piperidin-1-yl)benzamide] | – | – | – | – | 1.87 | – | – | – | – | – | – | – | 30 | half-life [2, 3]: 4.1 h; AUC(0-t) [2, 4]: 0.539 µg·h/mL; Vd [2, 3]: 4.34 L/kg; half-life [2, 5]: 2.4 h; AUC(0-t) [2, 6]: 0.492 µg·h/mL; Cmax [2, 7]: 0.102 µg/mL; Tmax [2, 8]: 1.7 h
N#Cc1ccc(O[C@H]2CC[C@H](NC(=O)c3ccc(NCCCCNc4ccc5c(c4)C(=O)N(C4CCC(=O)NC4=O)C5=O)cc3)CC2)cc1Cl (some centres unmarked) [compound 210, N-((1r,4r)-4-(3-chloro-4-cyanophenoxy)cyclohexyl)-4-((4-((2-(2,6-dioxopiperidin-3-yl)-1,3-dioxoisoindolin-5-yl)amino)butyl)amino)benzamide] | 43 | 70 | 55 | 38 | – | – | – | – | – | – | – | – | – | –
N#Cc1ccc(O[C@@H]2CCC[C@@H](NC(=O)c3ccc(N4CCC(N5CCN(c6ccc7c(c6)C(=O)N(C6CCC(=O)NC6=O)C7=O)CC5)CC4)cc3)CC2)cc1Cl (stereo partly drawn) [compound 227, N-((1R,4R)-4-(3-chloro-4-cyanophenoxy)cycloheptyl)-4-(4-(4-(2-(2,6-dioxopiperidin-3-yl)-1,3-dioxoisoindolin-5-yl)piperazin-1-yl)piperidin-1-yl)benzamide] | 22 | 36 | 34 | 43 | – | – | – | – | – | – | – | – | – | –
CN(c1ccc(C#N)c(Cl)c1)C1CCC(NC(=O)c2ccc(C#CC3CCN(C4CCN(c5ccc6c(c5)C(=O)N(C5CCC(=O)NC5=O)C6=O)CC4)CC3)cc2)CC1 (centres unmarked) [compound 32] | – | – | – | – | – | – | – | – | – | – | – | – | – | AR protein degradation VCap 10 nM ([1]; 10 nM, 24 hr treatment): A (>90% degradation (24 hr treatment)); AR protein degradation VCap 100 nM ([1]; 100 nM, 24 hr treatment): A (>90% degradation (24 hr treatment))
N#Cc1ccc(O[C@H]2CC[C@H](NC(=O)c3ccc(N4CCN(CCCCCNc5ccc6c(c5)C(=O)N(C5CCC(=O)NC5=O)C6=O)CC4)cc3)CC2)cc1Cl (some centres unmarked) [compound 221, N-((1r,4r)-4-(3-chloro-4-cyanophenoxy)cyclohexyl)-4-(4-(5-((2-(2,6-dioxopiperidin-3-yl)-1,3-dioxoisoindolin-5-yl)amino)pentyl)piperazin-1-yl)benzamide] | 17 | 22 | 51 | 34 | – | – | – | – | – | – | – | – | – | –
CC1(C)C(=O)N(c2ccc(C#N)c(C(F)(F)F)c2)C(=S)N1c1ccc(C(=O)N2CCN(C3CCN(c4ccc5c(c4)C(=O)N(C4CCC(=O)NC4=O)C5=O)CC3)CC2)c(F)c1 (centres unmarked) [compound 242, 4-(3-(4-(4-(1-(2-(2,6-dioxopiperidin-3-yl)-1,3-dioxoisoindolin-5-yl)piperidin-4-yl)piperazine-1-carbonyl)-3-fluorophenyl)-4,4-dimethyl-5-oxo-2-thioxoimidazolidin-1-yl)-2-(trifluoromethyl)benzonitrile] | 14 | 6 | 18 | 31 | – | – | – | – | – | – | – | – | – | –
